Experimental data reported in patent publication US20120020915A1, “Compounds and Methods for Treating Cancer and Diseases of the Central Nervous System” (QUEENS UNIVERSITY AT KINGSTON, priority 2007, published 2012).
Where a name gives a salt, the structure may show the parent alone. Read-outs that look alike come from different tables or passages of the source.

Assays:
HO-1 (rat spleen) = target: T1, HO-1 (rat spleen) (Rattus norvegicus, UniProt P06762); test: HO enzymatic activity, rat spleen microsomal fraction (CO formation from methemalbumin); assay type: biochemical; settings: average ± SD of replicate experiments
T1 construct: Spleen microsomes were used as a source of HO-1; from tissue; host or cells: spleen microsomal fraction of adult male Sprague-Dawley rats
T1 sequence (P06762 1-289): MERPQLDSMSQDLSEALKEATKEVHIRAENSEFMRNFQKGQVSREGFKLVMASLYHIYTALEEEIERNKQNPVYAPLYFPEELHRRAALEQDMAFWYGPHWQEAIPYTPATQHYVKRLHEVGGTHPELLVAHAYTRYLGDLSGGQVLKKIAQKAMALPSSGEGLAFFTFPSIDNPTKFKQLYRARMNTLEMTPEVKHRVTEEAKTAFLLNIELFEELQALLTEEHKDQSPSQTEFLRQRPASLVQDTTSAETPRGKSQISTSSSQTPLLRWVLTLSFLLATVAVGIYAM
Procedure: (§1) Incubations for HO activity analysis were done under conditions for which the rate of CO formation (pmol CO×min^−1×mg protein^−1) was linear with respect to time and microsomal protein concentration. Briefly, reaction mixtures (150 μL) consisting of 100 mM phosphate buffer (pH 7.4), 50 μM methemalbumin, and 1 mg/mL protein were pre-incubated with the inhibitors at final concentrations ranging from 0.1-100 μM for 10 minutes at 37° C. Reactions were initiated by adding NADPH at a final concentration of 1 mM and incubations were performed for an additional 15 minutes at 37° C.
(§2) Incubations for HO activity analysis were done under conditions for which the rate of CO formation (pmol CO/mg protein/minute) was linear with respect to time and microsomal protein concentration. Briefly, reaction mixtures (150 μL) consisting of 100 mM phosphate buffer (pH 7.4), 50 μM methemalbumin and 1 mg/mL protein were pre-incubated with the vehicle (ethanol or water in which the inhibitors were dissolved), or inhibitors at final concentrations ranging from 0.1-1000 μM for 10 minutes at 37° C. Reactions were initiated by adding β-NADPH at a final concentration of 1 mM and incubations were carried out for an additional 15 minutes at 37° C. Reactions were stopped by instantly freezing the reaction mixture on pulverized dry ice and CO formation was measured by gas chromatography using a TA 3000R Process Gas Analyzer (Trace Analytical/Ametek, Newark, Del., USA).
(§3) The values on the abscissa represent the decimal logarithm of the inhibitor's concentration (in μM), whereas the values of the activity on the ordinate are expressed as a percentage of the control experiments without inhibitor.
(§4) The IC50 values for the replicate experiments were employed to generate the reported standard deviation value.

HO-2 (rat brain) = target: T2, HO-2 (rat brain) (Rattus norvegicus, UniProt P23711); test: HO enzymatic activity, rat brain microsomal fraction (CO formation from methemalbumin); assay type: biochemical; settings: average ± SD of replicate experiments
T2 construct: brain microsomes were used as a source of HO-2; from tissue; host or cells: brain microsomal fraction of adult male Sprague-Dawley rats
T2 sequence (P23711 1-315): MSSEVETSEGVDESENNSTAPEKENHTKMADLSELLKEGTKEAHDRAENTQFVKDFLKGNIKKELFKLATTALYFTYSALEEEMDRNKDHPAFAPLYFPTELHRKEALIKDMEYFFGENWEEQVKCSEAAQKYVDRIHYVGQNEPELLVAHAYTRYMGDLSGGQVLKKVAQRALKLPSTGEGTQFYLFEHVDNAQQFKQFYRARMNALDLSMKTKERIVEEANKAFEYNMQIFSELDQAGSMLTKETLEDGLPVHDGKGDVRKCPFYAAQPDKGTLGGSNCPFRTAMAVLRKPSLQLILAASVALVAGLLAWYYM
Procedure: as §1, §2, §3, §4

[1] = read-out: IC50 HO-1 (rat spleen/μM)
[2] = read-out: IC50 HO-2 (rat brain)/μM)

| Compound | IC50 (HO-1 (rat spleen); IC50 HO-1 (rat spleen/μM)) [µM] | IC50 (HO-2 (rat brain); IC50 HO-2 (rat brain)/μM)) [µM] | IC50 (HO-1 (rat spleen); [1]) [µM] | IC50 (HO-2 (rat brain); [2]) [µM] |
| --- | --- | --- | --- | --- |
| Cn1c(NCCc2c[nH]cn2)nc2ccccc21 [QC-147, [2-(1H-Imidazol-4-yl)-ethyl]-(1-methyl-1H-benzoimidazol-2-yl)-amine dihydrochloride] | > 100 | > 100 | – | – |
| CCN1CCN(c2nc3ccccc3[nH]2)CC1 [QC-148, 2-(4-Ethyl-piperazin-1-yl)-1H-benzoimidazole dihydrochloride hemihydrate] | – | – | > 100 | > 100 |
| c1ccc2[nH]c(NC3CCC(c4cnc[nH]4)CC3)nc2c1 (centres unmarked) [QC-149, (1H-Benzoimidazol-2-yl)-[4-(3H-imidazol-4-yl)-cyclohexyl]-amine dihydrochloride] | – | – | > 200 | > 200 |
| O=C(CCc1ccccc1)Cn1cnc([N+](=O)[O-])n1 [QC-152, 1-(3-Nitro-[1,2,4]triazol-1-yl)-4-phenyl-butan-2-one] | – | – | > 100 | > 100 |
| N#Cc1ncn(CC(=O)CCc2ccccc2)c1C#N [QC-154, 1-(2-Oxo-4-phenylbutyl)-1H-imidazole-4,5-dicarbonitrile hydrochloride] | > 100 | > 100 | – | – |
| CS(=O)(=O)c1ncn(CC(=O)CCc2ccccc2)n1 [QC-155, 1-(3-Methanesulfonyl-[1,2,4]triazol-1-yl)-4-phenyl-butan-2-one] | – | – | > 100 | > 100 |
| CS(=O)(=O)c1ncnn1CC(=O)CCc1ccccc1 [QC-156, 1-(5-Methanesulfonyl-[1,2,4]triazol-1-yl)-4-phenyl-butan-2-one] | – | – | > 100 | > 100 |
| O=C(Cn1cncn1)c1ccccc1 [QC-157, 1-Phenyl-2-[1,2,4]triazol-1-yl-ethanone hydrochloride] | 12 ± 0.9 | > 100 | – | – |
| O=C(Cn1cncn1)c1ccc(Cl)cc1 [QC-158, 1-(4-Chlorophenyl)-2-[1,2,4]triazol-1-yl-ethanone hydrochloride] | 2.2 ± 0.5 | 122 ± 0.1 | – | – |
| O=C(Cn1ccnc1)c1ccc([N+](=O)[O-])cc1 [QC-159, 2-Imidazol-1-yl-1-(4-nitro-phenyl)-ethanone hydrochloride] | 2.5 ± 0.2 | > 100 | – | – |
| O=C(CCc1ccccc1)Cn1ccnc1[N+](=O)[O-] [QC-160, 1-(2-Nitro-imidazol-1-yl)-4-phenyl-butan-2-one hydrochloride] | > 100 | > 100 | – | – |
| O=C(Cn1ccnc1)c1ccc(Br)cc1 [QC-161, 1-(4-Bromophenyl)-2-imidazol-1-yl-ethanone hydrochloride] | 3.2 ± 0.8 | 14 ± 2 | – | – |
| O=C(Cn1ccnc1)c1ccc2ccccc2c1 [QC-162, 2-Imidazol-1-yl-1-napthalen-2-yl-ethanone hydrochloride] | – | – | 1.9 ± 0.1 | 12 ± 0.05 |
| COc1ccc(C(=O)Cn2ccnc2)cc1 [QC-163, 2-Imidazol-1-yl-1-(4-methoxyphenyl)-ethanone hydrochloride] | – | 62 ± 3 | 32 ± 4 | – |
| Cc1ccc(C(=O)Cn2ccnc2)cc1 [QC-165, 2-Imidazol-1-yl-1-p-tolyl-ethanone hydrochloride] | 17 ± 4 | 69 ± 16 | – | – |
| O=C(Cn1ccnc1)c1ccc(-c2ccccc2)cc1 [QC-166, 1-Biphenyl-4-yl-2-imidazol-1-yl-ethanone hydrochloride] | 2.1 ± 0.7 | 3 ± 0.7 | – | – |
| CCOC(=O)Cc1nnn(CC(=O)CCc2ccccc2)n1 [QC-178, [2-(2-Oxo-4-phenyl-butyl)-2H-tetrazol-5-yl]-acetic acid ethyl ester] | – | – | > 100 | > 100 |
| NC[C@@H]1CO[C@@](CCc2ccccc2)(Cn2ccnc2)O1 [QC-190, {2-[2-(phenyl)-ethyl]-2-imidazol-1-ylmethyl-[1,3]dioxolan-4-yl}-methylamine dihydrochloride] | – | – | 21 ± 3 | > 100 |
| N#CSC[C@@H]1CO[C@@](CCc2ccc(Cl)cc2)(Cn2ccnc2)O1 [QC-197, 1-{2-[2-(4-Chloro-phenyl)-ethyl]-4-thiocyanatomethyl-[1,3]dioxolan-2-ylmethyl}-1H-imidazole hydrochloride] | 3 ± 0.9 | > 100 | – | – |
